Measurements taken from BindingDB's records for doi:10.1021/acs.jmedchem.8b00106 (China Pharmaceutical University, 2018).

Experiment: Agonist activity at VDR in human HL60 cells assessed as induction of cell differentiation after 96 hrs by NBT assay

Structure (SMILES)	EC50 [nM]
CCn1c(C(=O)NCC#N)ccc1C(CC)(CC)c1ccc(OCCC(O)(CC)CC)c(C)c1	1080
CCn1c(C(=O)N(CCC#N)CCC#N)ccc1C(CC)(CC)c1ccc(OCCC(O)(CC)CC)c(C)c1	> 10000
CCC(C)C(NC(=O)c1ccc(C(CC)(CC)c2ccc(OCCC(O)(CC)CC)c(C)c2)n1CC)C(=O)O (stereo unspecified)	860
CCn1c(C(=O)Nc2cccc(C(F)(F)F)c2)ccc1C(CC)(CC)c1ccc(OCCC(O)(CC)CC)c(C)c1	5900
CCn1c(C(=O)Nc2ccc(OC(F)(F)F)cc2)ccc1C(CC)(CC)c1ccc(OCCC(O)(CC)CC)c(C)c1	> 10000
CCn1c(C(=O)Oc2ccc(CC(=O)OC)cc2)ccc1C(CC)(CC)c1ccc(OCCC(O)(CC)CC)c(C)c1	> 10000
CCOc1ccc(NC(=O)c2ccc(C(CC)(CC)c3ccc(OCCC(O)(CC)CC)c(C)c3)n2CC)cc1	1630
CCn1c(C(=O)NC(CO)CCO)ccc1C(CC)(CC)c1ccc(OCCC(O)(CC)CC)c(C)c1 (stereo unspecified)	2490
C#CCCOC(=O)c1ccc(C(CC)(CC)c2ccc(OCCC(O)(CC)CC)c(C)c2)n1CC	6030
C=CCN(C)C(=O)c1ccc(C(CC)(CC)c2ccc(OCCC(O)(CC)CC)c(C)c2)n1CC	> 10000
C#CC(C)OC(=O)c1ccc(C(CC)(CC)c2ccc(OCCC(O)(CC)CC)c(C)c2)n1CC (stereo unspecified)	2650
CCC(C)C(NC(=O)c1ccc(C(CC)(CC)c2ccc(OCCC(O)(CC)CC)c(C)c2)n1CC)C(=O)OC (stereo unspecified)	> 10000

Stronger by EC50, values ahead:

EC50 [nM]	Structure (SMILES)
520	CCOC(=O)CN(C)C(=O)c1ccc(C(CC)(CC)c2ccc(OCCC(O)(CC)CC)c(C)c2)n1CC
450	CCC(C)C(CO)NC(=O)c1ccc(C(CC)(CC)c2ccc(OCCC(O)(CC)CC)c(C)c2)n1CC (stereo unspecified)
238	CCn1c(C(=O)NCCCN2CCOCC2)ccc1C(CC)(CC)c1ccc(OCCC(O)(CC)CC)c(C)c1
156	CCn1c(C(=O)NCCN)ccc1C(CC)(CC)c1ccc(OCCC(O)(CC)CC)c(C)c1
96	CCn1c(C(=O)NC(C)CO)ccc1C(CC)(CC)c1ccc(OCCC(O)(CC)CC)c(C)c1 (stereo unspecified)
89	CCn1c(C(=O)N(C)CC(=O)O)ccc1C(CC)(CC)c1ccc(OCCC(O)(CC)CC)c(C)c1
82	CCn1c(C(=O)NCCN(C)C)ccc1C(CC)(CC)c1ccc(OCCC(O)(CC)CC)c(C)c1
66	CCn1c(C(=O)NC(C)C(=O)O)ccc1C(CC)(CC)c1ccc(OCCC(O)(CC)CC)c(C)c1 (stereo unspecified)
53	CCn1c(C(=O)N(C)CCO)ccc1C(CC)(CC)c1ccc(OCCC(O)(CC)CC)c(C)c1
26	CCn1c(C(=O)NC(CC(=O)O)C(=O)OC)ccc1C(CC)(CC)c1ccc(OCCC(O)(CC)CC)c(C)c1 (stereo unspecified)
11	CCN(CC)CCCNC(=O)c1ccc(C(CC)(CC)c2ccc(OCCC(O)(CC)CC)c(C)c2)n1CC
8.5	CCn1c(C(=O)NC(C)CO)ccc1C(CC)(CC)c1ccc(OCC(O)C(C)(C)C)c(C)c1 (stereo unspecified)
5	CCn1c(C(=O)NCCCN(C)C)ccc1C(CC)(CC)c1ccc(OCCC(O)(CC)CC)c(C)c1
2.3	CCN(CC)CCNC(=O)c1ccc(C(CC)(CC)c2ccc(OCCC(O)(CC)CC)c(C)c2)n1CC
